This note sets out measurements from patent publication US12268665B2, “Combination of immunotherapies with MDM2 inhibitors” (ASCENTAGE PHARMA (SUZHOU) CO., LTD., priority 2018, dated 2025).

The structures appear in SMILES notation. Like-named read-outs stand apart in the source and are kept apart here.

Data set [1] relates to MH-22A murine hepatoma syngeneic model. The data set is described as follows: In vivo efficacy study in MH-22A model. Also noted: species or system mouse. To be noted: for RTV (Mean ± SEM) d15 / T/C (%) d15: anti-PD-1 10 mg/kg i.p. biw; for Response rate (%) d15: anti-PD-1 10 mg/kg, n=10. As to the method:
Tumor volumes were measured twice weekly in two dimensions using a caliper, and the volume was expressed in mm^3 using the formula: Tumor Volume(mm^3)=0.5a×b^2 where a and b are the long and short diameters of the tumor, respectively.
Relative tumor volume (RTV) was calculated using the following formula: RTV=Vt/V1 Where V1 and Vt are the average tumor volumes on the first day of treatment (day 1) and the average tumor volumes on a certain time point (day t).
Synergy score was calculated using the following formula (Clarke R, Breast Cancer Research & Treatment, 1997, 46(2-3):255-278): Synergy score=((A/C)×(B/C))/(AB/C); A: response to treatment A; B: response to treatment B; C: response to vehicle control; AB: combination of treatment A and B.
Standard NCI procedures were used to calculate tumor parameters. Percent tumor growth inhibition (% T/C) was calculated as the mean RTV of treated tumors (T) divided by the mean RTV of control tumors (C)×100%. The percentage T/C value is an indication of antitumor effectiveness: a value of T/C<42% is considered significant antitumor activity by the NCI. A T/C value <10% is considered to indicate highly significant antitumor activity, and is the level used by the NCI to justify a clinical trial if toxicity and certain other requirements are met (termed DN-2 level activity). A body weight loss nadir (mean of group) of greater than 20%, or greater than 20% of drug deaths are considered to indicate an excessively toxic dosage.
Each mouse was inoculated subcutaneously at the right flank region with MH-22A tumor cells (5×10^6) in 0.2 mL of PBS for tumor development. The treatments were initiated when the mean tumor size reached ˜65 mm^3. The test articles were administered to the tumor-bearing mice according to the regimen shown in the experimental design Table 3. The day of start dosing was defined as d1.

The test system of data set [2] is tumor infiltrating cells in MH-22A syngeneic tumors. In words: TIL analysis by flow cytometry, p53 wt MH-22A syngeneic tumors. To be noted: p53 wt MH-22A tumors. The data set is classed as in vivo. As to the method:
The live/dead fixable dye (Invitrogen) was used to exclude dead cells. The FOXP3 kit from eBioscience was used for FOXP3 staining. Cells were washed and stained for 30 min on ice with indicated antibodies in MACS buffer or Brilliant staining buffer. Samples were than analyzed on Life Technology Attune NxT flow cytometer.
Mice were euthanized on day 7, and tumors were mechanically dissociated and digested with Collagenase IV (Sigma), hyaluronic acid (Sigma) and DNase (Sigma). Single-cell suspensions were prepared and stained against the indicated markers for flow cytometry analysis. Tumor samples were collected 24 hrs post last dosing.
On d7, when the mean tumor volume reached approximately 300-500 mm3, syngeneic tumors were collected and processed for TIL analysis. […] There were approximately a 1.5 to 2-fold increase relative to the control. […] Most strikingly, the frequency of M2 macrophages was reduced by the combined therapy in comparison with both control (P<0.01) and anti-PD-1 single agent groups (P<0.05).

Data set [3] is described as follows: Pharmacokinetic (PK) analysis in MH-22A tumor-bearing mice (LC/MS/MS). In kind it is in vivo, mouse. To be noted: for concentration at 4 h: oral. As to the method: The quantitative LC/MS/MS analysis was conducted using an Exion HPLC system (AB Sciex, Ontario, Canada) coupled to an API 5500 mass spectrometer (AB Sciex, Ontario, Canada) equipped with an API electrospray ionization (ESI) source. The Phenomenex Titank phenyl-Hexyl column (50 mm×2.1 mm, 5 μm particle size) was used to achieved HPLC separation. The injection volume was 2 μl and the flow rate was kept constantly at 0.5 ml/min. Chromatography was performed with mobile phase A, acetonitrile:water:formic (5:95:0.1, by volume) and B, acetonitrile:water:formic (95:5:0.1, by volume). The mass spectrometer was operated at ESI positive ion mode for APG-115 while ESI negative mode for epacadostat. The detection of the ions was performed in the multiple reaction monitoring (MRM) mode, monitoring the transition of m/z 642.0→246.1 and 271.1→172.0 for APG-115 and IS (tolbutamide) in positive mode, 435.9→338.8 and 269.2→169.2 for epacadostat and IS (tolbutamide) in negative mode, respectively. Compounds parameters, declustering potential (DP), collision energy (CE) were 51, 61 V, 80, 18 V for APG-115 and IS in positive mode, −61, −15 V and −90, −23.5 V for epacadostat and IS in negative mode, respectively.
Blood and tumor samples were collected from 5 mice/group in group-1, group-2, group-3 and group-5 4 hrs after the final dose on […]. Blood samples were collected from 5 mice/group in group-4, group-6, group-7 and group-8 4 hrs after the final dose on d29. Approximately 100 μl blood were collected in EDTA-2K tube and 50 μl plasma were collected for PK analysis. All samples were stored at −80° C. until analysis.
In efficacy study of Example 2.1, mice in vehicle, APG-115 10 mg/kg and 50 mg/kg, and epacadostat single-agent groups were euthanized on d15 as described above. To assess PK characteristics of APG-115 and epacadostat in this study, plasma and tissue samples were collected 4 h after the last dosing on d15.

Another data set in a line: clinical. On the set-up: species or system human. Conditions: in vivo. As to the method:
Patients with advanced soft tissue sarcoma (STS), adenoid cystic carcinoma (ACC) or other solid tumors in China (CTR20170975) were treated with APG-115. In dose escalation, patients received APG-115 (100-200 mg) orally QOD for first 21 days of a 28-day cycle, until disease progression. Study objectives include safety (primary endpoint), pharmacokinetics (PK), pharmacodynamics (PD), and antitumor activity assessed every 8 weeks.
This is a Phase I study (CTR20170975) is designed to assess the safety, dose-limiting toxicities (DLT), the maximum tolerated dose (MTD)/recommended phase 2 dose (RP2D), pharmacokinetics (PK), pharmacodynamics (PD) profile and anti-tumor activity of orally administered APG-115 in Chinese patients with advanced soft tissue sarcoma and other solid tumors.

[4] abbreviates: APG-115 10 mg/kg p.o. qd, epacadostat 100 mg/kg p.o. bid.

What is called Tmax is the time at which the peak concentration occurs. Take `CCN1[C@@H](C(=O)NC23CCC(C(=O)O)(CC2)CC3)[C@H](c2cccc(Cl)c2F)[C@]2(C(=O)Nc3cc(Cl)ccc32)C12CCCCC2` [APG-115]: the “RTV (Mean ± SEM) d15” value came to 37.8 ± 6.8 in data set [1] (setting [4]) and 36.2 ± 8.7 in data set [1] (APG-115 50 mg/kg p.o. qd). For the same molecule, the figures for the “T/C (%) d15” value in data set [1] (setting [4]) and in data set [1] (APG-115 50 mg/kg p.o. qd) were 98% and 94%, respectively. In addition, the “Response rate (%) d15” value in data set [1] (APG-115 10 mg/kg, epacadostat 100 mg/kg) was found to be 0%; in data set [1] (APG-115 50 mg/kg) it was 0%. In data set [1] (APG-115 10 and 50 mg/kg, epacadostat 100 mg/kg), the “antitumor activity as single agents” value is “did not exert antitumor activity”. Besides, the “CD4+ T cells, NK cells, MDSCs, and regulatory T (Treg) cells” value in data set [2] is on record as “no significant changes”. Also, the “increases in systemic exposure and tissue distribution with dose” value in data set [3] (10 vs 50 mg/kg) was “approximately dose proportional”. In addition, the “pharmacokinetic interaction with anti-PD-1 antibody” value in data set [3] (mouse, in vivo) is listed as “no apparent pharmacokinetic interaction”. Also, the concentration at 4 h was 157 ng/mL in data set [3] (mouse, plasma, 10 mg/kg, 10 mg/kg daily oral for 15 days, single agent, 4 h after last dosing, read-out: plasma concentration of APG-115); 120 ng/mL in data set [3] (mouse, plasma, 10 mg/kg, 10 mg/kg in combination with anti-PD-1, read-out: plasma concentration of APG-115); 1230 ng/mL in data set [3] (mouse, plasma, 50 mg/kg, 50 mg/kg daily oral for 15 days, single agent, 4 h after last dosing, read-out: plasma concentration of APG-115); 2150 ng/mL in data set [3] (mouse, plasma, 50 mg/kg, 50 mg/kg in combination with anti-PD-1, read-out: plasma concentration of APG-115); 152 ng/g in data set [3] (mouse, tumor, 10 mg/kg, 10 mg/kg as single agent, read-out: APG-115 concentration in tumor tissues); 1470 ng/g in data set [3] (mouse, tumor, 50 mg/kg, 50 mg/kg as single agent, read-out: APG-115 concentration in tumor tissues). In addition, the Tmax in “clinical” (human) was 4 to 6 h. The “AUC and Cmax versus dose” value in the data set “clinical” is reported as “generally increase dose proportionally”. The “Cmax and AUC0-t versus dose” value in “clinical” (po) was “approximately dose proportional increase”.
